Experiments:
Assay type in all cases: functional
NCI-H522 = assay: Anticancer activity against Homo sapiens (human) NCI-H522 cells assessed as cell growth promotion at 10 uM after 48 hr by SRB assay
KM12 = assay: Anticancer activity against Homo sapiens (human) KM12 cells assessed as cell growth promotion at 10 uM after 48 hr by SRB assay
NCI-H460 = assay: Anticancer activity against Homo sapiens (human) NCI-H460 cells assessed as cell growth promotion at 10 uM after 48 hr by SRB assay
OVCAR-4 = assay: Anticancer activity against Homo sapiens (human) OVCAR4 cells assessed as cell growth promotion at 10 uM after 48 hr by SRB assay
MDA-MB-435 = assay: Anticancer activity against Homo sapiens (human) MDA-MB-435 cells assessed as cell growth promotion at 10 uM after 48 hr by SRB assay
IGROV-1 = assay: Anticancer activity against Homo sapiens (human) IGROV1 cells assessed as cell growth promotion at 10 uM after 48 hr by SRB assay
Malme-3M = assay: Anticancer activity against Homo sapiens (human) MALME-3M cells assessed as cell growth promotion at 10 uM after 48 hr by SRB assay
UACC-62 = assay: Anticancer activity against Homo sapiens (human) UACC62 cells assessed as cell growth promotion at 10 uM after 48 hr by SRB assay
SN12C = assay: Anticancer activity against Homo sapiens (human) SN12C cells assessed as cell growth promotion at 10 uM after 48 hr by SRB assay
T47D = assay: Anticancer activity against Homo sapiens (human) T47D cells assessed as cell growth promotion at 10 uM after 48 hr by SRB assay
786-0 = assay: Anticancer activity against Homo sapiens (human) 786-0 cells assessed as cell growth promotion at 10 uM after 48 hr by SRB assay
SNB-75 = assay: Anticancer activity against Homo sapiens (human) SNB75 cells assessed as cell growth promotion at 10 uM after 48 hr by SRB assay
SF-295 = assay: Anticancer activity against Homo sapiens (human) SF295 cells assessed as cell growth promotion at 10 uM after 48 hr by SRB assay
DU-145 = assay: Anticancer activity against Homo sapiens (human) DU145 cells assessed as cell growth promotion at 10 uM after 48 hr by SRB assay
TK-10 = assay: Anticancer activity against Homo sapiens (human) TK10 cells assessed as cell growth promotion at 10 uM after 48 hr by SRB assay
M14 = assay: Anticancer activity against Homo sapiens (human) M14 cells assessed as cell growth promotion at 10 uM after 48 hr by SRB assay
A498 = assay: Anticancer activity against Homo sapiens (human) A498 cells assessed as cell growth promotion at 10 uM after 48 hr by SRB assay
HCT-15 = assay: Anticancer activity against Homo sapiens (human) HCT15 cells assessed as cell growth promotion at 10 uM after 48 hr by SRB assay
HOP-62 = assay: Anticancer activity against Homo sapiens (human) HOP62 cells assessed as cell growth promotion at 10 uM after 48 hr by SRB assay
UACC-257 = assay: Anticancer activity against Homo sapiens (human) UACC257 cells assessed as cell growth promotion at 10 uM after 48 hr by SRB assay
HL-60(TB) = assay: Anticancer activity against Homo sapiens (human) HL-60(TB) cells assessed as cell growth promotion at 10 uM after 48 hr by SRB assay
MDA-MB-468 = assay: Anticancer activity against Homo sapiens (human) MDA-MB-468 cells assessed as cell growth promotion at 10 uM after 48 hr by SRB assay
EKVX = assay: Anticancer activity against Homo sapiens (human) EKVX cells assessed as cell growth promotion at 10 uM after 48 hr by SRB assay
NCI-H226 = assay: Anticancer activity against Homo sapiens (human) NCI-H226 cells assessed as cell growth promotion at 10 uM after 48 hr by SRB assay
RPMI-8226 = assay: Anticancer activity against Homo sapiens (human) RPMI8226 cells assessed as cell growth promotion at 10 uM after 48 hr by SRB assay
SK-MEL-28 = assay: Anticancer activity against Homo sapiens (human) SK-MEL-28 cells assessed as cell growth promotion at 10 uM after 48 hr by SRB assay
RXF 393 = assay: Anticancer activity against Homo sapiens (human) RXF393 cells assessed as cell growth promotion at 10 uM after 48 hr by SRB assay
SW-620 = assay: Anticancer activity against Homo sapiens (human) SW620 cells assessed as cell growth promotion at 10 uM after 48 hr by SRB assay
UO-31 = assay: Anticancer activity against Homo sapiens (human) UO31 cells assessed as cell growth promotion at 10 uM after 48 hr by SRB assay
MOLT-4 = assay: Anticancer activity against Homo sapiens (human) MOLT4 cells assessed as cell growth promotion at 10 uM after 48 hr by SRB assay
SK-MEL-2 = assay: Anticancer activity against Homo sapiens (human) SK-MEL-2 cells assessed as cell growth promotion at 10 uM after 48 hr by SRB assay
A549 = assay: Anticancer activity against Homo sapiens (human) A549/ATCC cells assessed as cell growth promotion at 10 uM after 48 hr by SRB assay
NCI-H23 = assay: Anticancer activity against Homo sapiens (human) NCI-H23 cells assessed as cell growth promotion at 10 uM after 48 hr by SRB assay
NCI-H322M = assay: Anticancer activity against Homo sapiens (human) NCI-H322M cells assessed as cell growth promotion at 10 uM after 48 hr by SRB assay
LOX IMVI = assay: Anticancer activity against Homo sapiens (human) LOXIMVI cells assessed as cell growth promotion at 10 uM after 48 hr by SRB assay
SR = assay: Anticancer activity against Homo sapiens (human) SR cells assessed as cell growth promotion at 10 uM after 48 hr by SRB assay
HCT-116 = assay: Anticancer activity against Homo sapiens (human) HCT116 cells assessed as cell growth promotion at 10 uM after 48 hr by SRB assay
Hs-578T = assay: Anticancer activity against Homo sapiens (human) Hs 578T cells assessed as cell growth promotion at 10 uM after 48 hr by SRB assay
OVCAR-8 = assay: Anticancer activity against Homo sapiens (human) OVCAR8 cells assessed as cell growth promotion at 10 uM after 48 hr by SRB assay
COLO 205 = assay: Anticancer activity against Homo sapiens (human) COLO205 cells assessed as cell growth promotion at 10 uM after 48 hr by SRB assay

Row | Structure (SMILES) | Activity (NCI-H522) [%] | Activity (KM12) [%] | Activity (NCI-H460) [%] | Activity (OVCAR-4) [%] | Activity (MDA-MB-435) [%] | Activity (IGROV-1) [%] | Activity (Malme-3M) [%] | Activity (UACC-62) [%] | Activity (SN12C) [%] | Activity (T47D) [%] | Activity (786-0) [%] | Activity (SNB-75) [%] | Activity (SF-295) [%] | Activity (DU-145) [%] | Activity (TK-10) [%] | Activity (M14) [%] | Activity (A498) [%] | Activity (HCT-15) [%] | Activity (HOP-62) [%] | Activity (UACC-257) [%] | further results
1 | CCOC(=O)c1csc(NC(=O)CSc2nc(C)c(C)n2Nc2ccc(C)cc2)n1 | 76.3 | 108.43 | 109.11 | 74.76 | 78.21 | 95.15 | 110.81 | 62.91 | 62.75 | 57.89 | 83.82 | 83.76 | 53.71 | 108.96 | 77.84 | 70.97 | 90.47 | 98.05 | 63.23 | 88.46 | Activity (HL-60(TB)): 77.24%; Activity (MDA-MB-468): 67.17%; Activity (EKVX): 99.66%; Activity (NCI-H226): 70.72%; Activity (RPMI-8226): 72.05%; Activity (SK-MEL-28): 80.17%; Activity (RXF 393): 38.47%; Activity (SW-620): 98.75%; Activity (UO-31): 62.65%; Activity (MOLT-4): 92.25%; Activity (SK-MEL-2): 93.46%; Activity (A549): 82.13%; Activity (NCI-H23): 74.71%; Activity (NCI-H322M): 97.18%; Activity (LOX IMVI): 77.98%; Activity (SR): 87.01%; Activity (HCT-116): 68.84%; Activity (Hs-578T): 139.32%; Activity (OVCAR-8): 82.64%; Activity (COLO 205): 80.51%
2 | Cc1nc(SCC(=O)Nc2nccs2)n(Nc2ccc(Cl)cc2)c1C | 111.97 | 113.75 | 106 | 102.19 | 110.71 | 126.1 | 140.83 | 104.39 | 96.39 | 91.74 | 111.66 | 92.05 | 97.66 | 122.72 | 120.55 | 97.83 | 101.93 | 102.77 | 88.3 | 107.66 | Activity (HL-60(TB)): 95.84%; Activity (MDA-MB-468): 105.66%; Activity (EKVX): 123.2%; Activity (NCI-H226): 93.51%; Activity (RPMI-8226): 104.54%; Activity (SK-MEL-28): 111.02%; Activity (RXF 393): 91.41%; Activity (SW-620): 123.41%; Activity (UO-31): 86.43%; Activity (MOLT-4): 117.57%; Activity (SK-MEL-2): 116.11%; Activity (A549): 101.96%; Activity (NCI-H23): 109.41%; Activity (NCI-H322M): 131.8%; Activity (LOX IMVI): 101.8%; Activity (SR): 120.95%; Activity (HCT-116): 94.47%; Activity (Hs-578T): 121.05%; Activity (OVCAR-8): 104.9%; Activity (COLO 205): 121.19%
3 | COc1ccc(Nn2c(SCC(=O)Nc3nccs3)nc(C)c2C)cc1 | 95.16 | 96.74 | 108.22 | 110.54 | 97.68 | 102.01 | 119.7 | 95.78 | 98.23 | 94.87 | 100.29 | 100.22 | 91.49 | 112.49 | 105.37 | 107.71 | 99.48 | 100.06 | 106.4 | 108.29 | Activity (HL-60(TB)): 98.86%; Activity (MDA-MB-468): 94.85%; Activity (EKVX): 108.98%; Activity (NCI-H226): 105.15%; Activity (RPMI-8226): 102.22%; Activity (SK-MEL-28): 113.96%; Activity (RXF 393): 126.87%; Activity (SW-620): 113.7%; Activity (UO-31): 86.71%; Activity (MOLT-4): 100.89%; Activity (SK-MEL-2): 92.7%; Activity (A549): 104.98%; Activity (NCI-H23): 106.56%; Activity (NCI-H322M): 110.58%; Activity (LOX IMVI): 105.4%; Activity (SR): 104%; Activity (HCT-116): 106.93%; Activity (Hs-578T): 109.7%; Activity (OVCAR-8): 103.25%; Activity (COLO 205): 107.27%
